# Measurements reported in patent EP4578856A1, “HETEROCYCLIC COMPOUND” (Ubience Inc., priority 2022, dated 2024).
# Biological target: ROCK2 protein (Homo sapiens, UniProt O75116)
# Experiment: Degradation inducing activity of ROCK2 protein in HUVEC cells, Western blotting (Simple Western JESS)
# Format: cell-based
# Parameters: endogenous in cells; host or cells: HUVEC (ATCC CRL-1730)
# Details: HUVEC, 24 h; for inhibition at 1 µM: degradation rate at 1 µM; for inhibition at 10 µM: degradation rate at 10 µM
# In short: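 HUVEC cells treated 24 h with compound at 10 µM or 1 µM, then lysed; ROCK2 quantified by capillary Western (Simple Western JESS) using rabbit mAb D1B1, normalized to total loaded protein. Degradation rate (%) calculated relative to DMSO control set at 100%, binned A ≥75%, B 50–75%, C 25–50%, D <25%.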
# Sequence of ROCK2 protein (O75116 whole entry): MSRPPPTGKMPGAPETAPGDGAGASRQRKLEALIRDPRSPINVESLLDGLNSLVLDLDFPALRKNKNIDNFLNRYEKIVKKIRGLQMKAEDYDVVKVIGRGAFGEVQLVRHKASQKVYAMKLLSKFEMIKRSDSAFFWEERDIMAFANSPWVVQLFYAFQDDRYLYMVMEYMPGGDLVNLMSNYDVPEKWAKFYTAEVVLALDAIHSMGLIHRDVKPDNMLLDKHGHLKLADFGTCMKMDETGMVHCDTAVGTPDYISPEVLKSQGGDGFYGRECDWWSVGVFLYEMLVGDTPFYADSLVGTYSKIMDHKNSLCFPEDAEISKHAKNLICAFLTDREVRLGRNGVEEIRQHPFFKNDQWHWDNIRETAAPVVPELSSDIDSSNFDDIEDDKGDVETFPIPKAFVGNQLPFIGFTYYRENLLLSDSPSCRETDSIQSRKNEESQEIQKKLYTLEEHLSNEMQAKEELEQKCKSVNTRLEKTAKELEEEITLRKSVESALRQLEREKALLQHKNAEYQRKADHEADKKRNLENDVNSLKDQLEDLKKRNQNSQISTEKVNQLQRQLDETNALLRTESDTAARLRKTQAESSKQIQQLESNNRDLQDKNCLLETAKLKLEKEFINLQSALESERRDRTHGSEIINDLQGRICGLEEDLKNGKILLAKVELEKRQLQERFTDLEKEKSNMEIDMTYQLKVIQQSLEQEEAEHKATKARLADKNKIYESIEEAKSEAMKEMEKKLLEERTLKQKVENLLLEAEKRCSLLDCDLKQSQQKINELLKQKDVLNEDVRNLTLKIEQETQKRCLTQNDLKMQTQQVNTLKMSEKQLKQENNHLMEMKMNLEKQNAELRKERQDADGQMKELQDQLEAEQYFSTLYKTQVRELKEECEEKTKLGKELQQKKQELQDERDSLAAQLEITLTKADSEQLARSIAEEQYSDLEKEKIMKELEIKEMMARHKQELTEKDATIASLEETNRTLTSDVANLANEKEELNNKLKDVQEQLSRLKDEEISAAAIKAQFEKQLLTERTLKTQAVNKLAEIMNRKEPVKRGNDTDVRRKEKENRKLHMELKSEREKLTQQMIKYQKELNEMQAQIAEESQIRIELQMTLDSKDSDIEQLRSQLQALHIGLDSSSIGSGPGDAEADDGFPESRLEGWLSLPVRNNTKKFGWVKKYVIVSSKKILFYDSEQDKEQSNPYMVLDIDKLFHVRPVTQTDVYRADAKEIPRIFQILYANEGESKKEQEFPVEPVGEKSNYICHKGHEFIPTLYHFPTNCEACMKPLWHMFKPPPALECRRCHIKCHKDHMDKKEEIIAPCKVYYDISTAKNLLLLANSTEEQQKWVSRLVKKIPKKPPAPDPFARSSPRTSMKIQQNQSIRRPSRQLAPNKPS
Compound,inhibition at 1 µM [%],inhibition at 10 µM [%]
"COC[C@H]1CN[C@H](C)CN1CC(=O)N1CC(C)(C)c2ncc(Cc3ccccc3OCCOCCOCCOCCOCCOCCOCCN[C@H](Cc3cccc(F)c3)C(=O)Nc3ccc(-c4ccncc4)cc3)cc21 [Example 76, (R)-2-(3-Fluorobenzyl)-23-(2-((1-(2-((2R,5R)-2-(methoxymethyl)-5-methylpiperazin-1-yl)acetyl)-3,3-dimethyl-2,3-dihydro-1H-pyrrolo[3,2-b]pyridin-6-yl)methyl)phenoxy)-N-(4-(pyridin-4-yl)phenyl)-6,9,12,15,18,21-hexaoxa-3-azatricosanamide]",< 25,50 to 75
"COC[C@H]1CN[C@H](C)CN1CC(=O)N1CC(C)(C)c2ncc(Cc3ccccc3OCCOCCOCCOCCOCCOCCOCCOCCN[C@H](Cc3cccc(F)c3)C(=O)Nc3ccc(-c4ccncc4)cc3)cc21 [Example 77, (R)-2-(3-Fluorobenzyl)-26-(2-((1-(2-((2R,5R)-2-(methoxymethyl)-5-methylpiperazin-1-yl)acetyl)-3,3-dimethyl-2,3-dihydro-1H-pyrrolo[3,2-b]pyridin-6-yl)methyl)phenoxy)-N-(4-(pyridin-4-yl)phenyl)-6,9,12,15,18,21,24-heptaoxa-3-azahexacosanamide]",< 25,≥ 75
"COC[C@H]1CN[C@H](C)CN1CC(=O)N1CC(C)(C)c2ncc(Cc3ccccc3OCCOCCNC[C@@H](C(=O)Nc3ccc4cnccc4c3)c3ccccc3)cc21 [Example 78, (S)-N-(Isoquinolin-6-yl)-3-((2-(2-(2-((1-(2-((2R,5R)-2-(methoxymethyl)-5-methylpiperazin-1-yl)acetyl)-3,3-dimethyl-2,3-dihydro-1H-pyrrolo[3,2-b]pyridin-6-yl)methyl)phenoxy)ethoxy)ethyl)amino)-2-phenylpropanamide]",< 25,≥ 75

# Other lines, results leading:
inhibition at 1 µM [%],inhibition at 10 µM [%],Compound
< 25,≥ 75,"COC[C@H]1CN[C@H](C)CN1CC(=O)N1CC(C)(C)c2ncc(Cc3ccccc3OCCOCCOCCOCCN[C@H](Cc3cccc(F)c3)C(=O)Nc3ccc(-c4ccncc4)cc3)cc21 [Example 73, (R)-2-(3-Fluorobenzyl)-14-(2-((1-(2-((2R,5R)-2-(methoxymethyl)-5-methylpiperazin-1-yl)acetyl)-3,3-dimethyl-2,3-dihydro-1H-pyrrolo[3,2-b]pyridin-6-yl)methyl)phenoxy)-N-(4-(pyridin-4-yl)phenyl)-6,9,12-trioxa-3-azatetradecanamide]"
< 25,50 to 75,"COC[C@H]1CN[C@H](C)CN1CC(=O)N1CC(C)(C)c2ncc(Cc3ccccc3OCCOCCOCCOCCOCCN[C@H](Cc3cccc(F)c3)C(=O)Nc3ccc(-c4ccncc4)cc3)cc21 [Example 74, (R)-2-(3-Fluorobenzyl)-17-(2-((1-(2-((2R,5R)-2-(methoxymethyl)-5-methylpiperazin-1-yl)acetyl)-3,3-dimethyl-2,3-dihydro-1H-pyrrolo[3,2-b]pyridin-6-yl)methyl)phenoxy)-N-(4-(pyridin-4-yl)phenyl)-6,9,12,15-tetraoxa-3-azaheptadecanamide]"
< 25,50 to 75,"COC[C@H]1CN[C@H](C)CN1CC(=O)N1CC(C)(C)c2ncc(Cc3ccccc3OCCOCCOCCOCCOCCOCCN[C@H](Cc3cccc(F)c3)C(=O)Nc3ccc(-c4ccncc4)cc3)cc21 [Example 75, (R)-2-(3-Fluorobenzyl)-20-(2-((1-(2-((2R,5R)-2-(methoxymethyl)-5-methylpiperazin-1-yl)acetyl)-3,3-dimethyl-2,3-dihydro-1H-pyrrolo[3,2-b]pyridin-6-yl)methyl)phenoxy)-N-(4-(pyridin-4-yl)phenyl)-6,9,12,15,18-pentaoxa-3-azaicosanamide]"
